Laboratory results published in PubChem BioAssay AID248 (DTP/NCI, 2004).
Where “and” joins values, the source holds several entries; their conditions need not be identical. Equal entries are not always repeated. Toxic doses and inconclusive results are not listed. Rule as the data show it: active = T/C of 150% or more; inactive = T/C below 125%.

System: L1210 leukemia ip in BDF1 mice, survival T/C
Test: NCI In Vivo Anticancer Drug Screen. Data for tumor model L1210 Leukemia (intraperitoneal) in B6D2F1 (BDF1) mice
Details: endpoint: mean survival time, higher = longer survival
Method in brief: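 Transplanted-tumor mice were given test agent; controls received vehicle only. Survival readings from the two groups were divided (treated over control).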

[1] = dose: 100.0 mg/kg/injection, schedule: Q01DX009 (ip), vehicle: Klucel (hydroxypropylcellulose) (HPC)
[2] = dose: 100.0 mg/kg/injection, schedule: Q04DX003 (ip), vehicle: Klucel (hydroxypropylcellulose) (HPC)
[3] = dose: 200.0 mg/kg/injection, schedule: Q01DX009 (ip), vehicle: Klucel (hydroxypropylcellulose) (HPC)
[4] = dose: 200.0 mg/kg/injection, schedule: Q04DX003 (ip), vehicle: Klucel (hydroxypropylcellulose) (HPC)
[5] = dose: 400.0 mg/kg/injection, schedule: Q01DX009 (ip), vehicle: Klucel (hydroxypropylcellulose) (HPC)
[6] = dose: 400.0 mg/kg/injection, schedule: Q04DX003 (ip), vehicle: Klucel (hydroxypropylcellulose) (HPC)
[7] = dose: 100.0 mg/kg/injection, schedule: Q04DX003 (ip), vehicle: saline with Tween-80
[8] = dose: 200.0 mg/kg/injection, schedule: Q04DX003 (ip), vehicle: saline with Tween-80
[9] = dose: 400.0 mg/kg/injection, schedule: Q04DX002 (ip), vehicle: saline with Tween-80
[10] = dose: 400.0 mg/kg/injection, schedule: Q04DX003 (ip), vehicle: saline with Tween-80
[11] = dose: 100.0 mg/kg/injection, schedule: Q04DX003 (ip), vehicle: saline
[12] = dose: 200.0 mg/kg/injection, schedule: Q04DX003 (ip), vehicle: saline
[13] = dose: 100.0 mg/kg/injection, schedule: Q01DX001 (ip), vehicle: saline
[14] = dose: 200.0 mg/kg/injection, schedule: Q01DX001 (ip), vehicle: saline
[15] = dose: 400.0 mg/kg/injection, schedule: Q01DX001 (ip), vehicle: saline
[16] = dose: 50.0 mg/kg/injection, schedule: Q01DX009 (ip), vehicle: saline

Measured: T/C

CCCCNC(=O)Nc1ccc(Nc2ccccc2)cc1
inactive: dose: 100.0 mg/kg/injection, schedule: Q01DX009 (ip), vehicle: gum acacia 88 % of control | dose: 100.0 mg/kg/injection, schedule: Q04DX003 (ip), vehicle: gum acacia 88 % of control | dose: 200.0 mg/kg/injection, schedule: Q01DX009 (ip), vehicle: gum acacia 108 % of control | dose: 200.0 mg/kg/injection, schedule: Q04DX003 (ip), vehicle: gum acacia 96 % of control | dose: 400.0 mg/kg/injection, schedule: Q04DX003 (ip), vehicle: gum acacia 96 % of control

C=C(C)C(=O)O[C@H]1CC2=C[C@@H](C[C@@]3(C)O[C@@H]3[C@H]3OC(=O)C(=C)[C@@H]31)OC2=O
inactive: dose: 2.5 mg/kg/injection, schedule: Q01DX009 (ip), vehicle: saline + alcohol 112 % of control | dose: 5.0 mg/kg/injection, schedule: Q01DX009 (ip), vehicle: saline + alcohol 110 % of control | dose: 5.0 mg/kg/injection, schedule: Q01DX Z (ip), vehicle: saline 106 % of control | dose: 10.0 mg/kg/injection, schedule: Q01DX009 (ip), vehicle: carboxymethylcellulose (CMC) 105 % of control | dose: 10.0 mg/kg/injection, schedule: Q01DX009 (ip), vehicle: saline + alcohol 107 % of control | dose: 10.0 mg/kg/injection, schedule: Q01DX Z (ip), vehicle: carboxymethylcellulose (CMC) 97 % of control | dose: 10.0 mg/kg/injection, schedule: Q01DX Z (ip), vehicle: saline 101 % of control | dose: 20.0 mg/kg/injection, schedule: Q01DX009 (ip), vehicle: carboxymethylcellulose (CMC) 93 % of control | dose: 20.0 mg/kg/injection, schedule: Q01DX009 (ip), vehicle: saline + alcohol 105 % of control | dose: 20.0 mg/kg/injection, schedule: Q01DX Z (ip), vehicle: carboxymethylcellulose (CMC) 100 % of control | dose: 40.0 mg/kg/injection, schedule: Q01DX009 (ip), vehicle: carboxymethylcellulose (CMC) 100 % of control | dose: 40.0 mg/kg/injection, schedule: Q01DX009 (ip), vehicle: saline + alcohol 90 % of control | dose: 40.0 mg/kg/injection, schedule: Q01DX Z (ip), vehicle: carboxymethylcellulose (CMC) 103 % of control

O=C(Nc1ccccc1C(F)(F)F)c1ccc(Cl)cc1
inactive: [1] 97 % of control | [2] 93 % of control | [3] 103 % of control | [4] 99 % of control | [5] 94 % of control | [6] 88 % of control

O=C(O)c1ccc(Br)cc1.[Ni]
inactive: dose: 25.0 mg/kg/injection, schedule: Q04DX002 (ip), vehicle: gum acacia 100 % of control | dose: 50.0 mg/kg/injection, schedule: Q04DX002 (ip), vehicle: gum acacia 101 % of control

CC1S(=O)(=O)CCS1(=O)=O
inactive: dose: 75.0 mg/kg/injection, schedule: Q01DX001 (ip), vehicle: saline with Tween-80 100 % of control | dose: 150.0 mg/kg/injection, schedule: Q01DX001 (ip), vehicle: saline with Tween-80 100 % of control | dose: 300.0 mg/kg/injection, schedule: Q01DX001 (ip), vehicle: saline with Tween-80 103 % of control

c1ccc(C(c2ccccc2)[Si](c2ccccc2)(C(c2ccccc2)c2ccccc2)C(c2ccccc2)c2ccccc2)cc1
inactive: dose: 25.6 mg/kg/injection, schedule: Q04DX002 (ip), vehicle: saline with Tween-80 96 % of control | dose: 37.5 mg/kg/injection, schedule: Q01DX009 (ip), vehicle: Klucel (hydroxypropylcellulose) (HPC) 93 % of control | dose: 64.0 mg/kg/injection, schedule: Q04DX002 (ip), vehicle: saline with Tween-80 100 % of control | dose: 75.0 mg/kg/injection, schedule: Q01DX009 (ip), vehicle: Klucel (hydroxypropylcellulose) (HPC) 88 % of control | [7] 94 % of control | dose: 160.0 mg/kg/injection, schedule: Q04DX002 (ip), vehicle: saline with Tween-80 93 % of control | [8] 100 % of control | [9] 104 % of control | [10] 94 % of control

CC(C)c1ccc(/C=N\[N+](C)(C)C)cc1
inactive: [11] 101 % of control | [12] 95 % of control

CC1=CC(=O)CC(C)C1 (configuration not stated)
inactive: [13] 111 % of control | [14] 94 % of control | [15] 103 % of control

CC(C)(C)c1cc(Cc2cc(C(C)(C)C)c(O)c(C(C)(C)C)c2)cc(C(C)(C)C)c1O
inactive: [7] 96 % of control | [8] 98 % of control | [10] 104 % of control

COC(=O)c1c2cccccc-2c(C(=O)OC)c1N
inactive: dose: 100.0 mg/kg/injection, schedule: Q04DX002 (ip), vehicle: saline with Tween-80 97 % of control | dose: 200.0 mg/kg/injection, schedule: Q04DX002 (ip), vehicle: saline with Tween-80 91 % of control | [9] 94 % of control

CCOC(=O)c1ncc2cnccn12
inactive: [16] 92 % of control | dose: 100.0 mg/kg/injection, schedule: Q01DX009 (ip), vehicle: saline 120 % of control | [11] 107 % of control | dose: 200.0 mg/kg/injection, schedule: Q01DX009 (ip), vehicle: saline 94 % of control | [12] 104 % of control

Cc1cc(C)cc(NC(=O)c2ccccc2N)c1
inactive: [7] 96 % of control | [8] 91 % of control | [10] 93 % of control

Clc1ccccc1C(N=Cc1ccc[nH]1)(c1ccccc1)c1ccccc1
inactive: [2] 90 % of control | [4] 93 % of control | [6] 93 % of control

CCOC(=O)c1ccc(NC(=O)OC2CCCC2)cc1
inactive: [1] 100 % of control | [3] 101 % of control | [5] 92 % of control

O=C1C(F)=C(N2CC2)C(=O)C(N2CCOCC2)=C1N1CC1
inactive: dose: 0.39 mg/kg/injection, schedule: Q04DX003 (ip), vehicle: saline 94 % of control and 108 % of control | dose: 0.75 mg/kg/injection, schedule: Q01DX009 (ip), vehicle: saline 114 % of control and 122 % of control | dose: 0.78 mg/kg/injection, schedule: Q04DX003 (ip), vehicle: saline 100 % of control | dose: 1.5 mg/kg/injection, schedule: Q01DX009 (ip), vehicle: saline 111 % of control | dose: 1.56 mg/kg/injection, schedule: Q04DX003 (ip), vehicle: saline 102 % of control and 112 % of control | dose: 3.0 mg/kg/injection, schedule: Q01DX009 (ip), vehicle: saline 110 % of control and 112 % of control | dose: 3.12 mg/kg/injection, schedule: Q01DX001 (ip), vehicle: saline 91 % of control | dose: 3.12 mg/kg/injection, schedule: Q04DX003 (ip), vehicle: saline 105 % of control and 107 % of control | dose: 6.0 mg/kg/injection, schedule: Q01DX009 (ip), vehicle: saline 111 % of control | dose: 6.25 mg/kg/injection, schedule: Q01DX001 (ip), vehicle: saline 104 % of control | dose: 6.25 mg/kg/injection, schedule: Q04DX003 (ip), vehicle: saline 105 % of control and 121 % of control | dose: 12.5 mg/kg/injection, schedule: Q01DX001 (ip), vehicle: saline 92 % of control

CCN(CC)CCC(CCN(CC)CC)(CNC(=O)CN(CC)CC)c1cccc2ccccc12
inactive: dose: 12.5 mg/kg/injection, schedule: Q01DX009 (ip), vehicle: saline 97 % of control | dose: 12.5 mg/kg/injection, schedule: Q04DX003 (ip), vehicle: saline 87 % of control | dose: 25.0 mg/kg/injection, schedule: Q01DX009 (ip), vehicle: saline 114 % of control | dose: 25.0 mg/kg/injection, schedule: Q04DX003 (ip), vehicle: saline 95 % of control | [16] 108 % of control | dose: 50.0 mg/kg/injection, schedule: Q04DX003 (ip), vehicle: saline 88 % of control

CC1C[N+](C)(C)N=C1[O-] (configuration not stated)
inactive: [13] 104 % of control | [14] 98 % of control | [15] 95 % of control

COc1cccc(Oc2c(O)c3ccc(OC)cc3oc2=O)c1
inactive: [13] 100 % of control | [14] 97 % of control | [15] 97 % of control
